Measurements taken from US6280760A, “Peptide-coated implants and methods for producing same” (Merck Patent Gesellschaft mit beschraenkter Haftung, priority 1997, dated 2001).

What was measured:
osteoblast cell cultures = test: Inhibition of osteoblast binding to thiolpeptide 1-coated surfaces by dissolved cyclic RGDfK in the adhesion medium; assay type: cell-based, mouse, human, rat; conditions: dissolved peptide in the adhesion medium; coating 10 μM; FIG. 4
Description: FIG. 4: Adhesion of osteoblasts to test surfaces coated with thiolpeptide 1-SMPP derivative (10 μM in the coating solution) (see FIG. 2)
x axis: Concentration of dissolved cyclo-RGDfK (without molecular anchor) in the adhesion medium (μM),
To do this, 48-well plates (Costar, "non-tissue culture treated", Art. No. 3547) were each coated with 250 μl of PBS (phosphate-buffered saline), pH=8.3, 2% BSA, per well and incubated overnight at room temperature in order to generate a BSA layer on the polystyrene. The plates were then washed with 250 μl of PBS, pH=8.3, per well and incubated at room temperature for 1 hour with 250 μl each of a solution containing 100 μg/ml of SMPB in PBS, pH 8.3. Washing of the wells was then carried out three times using 250 μl of PBS, pH 8.3, each time. For the preparation of the coating solutions, the appropriate thiol-RGD peptide was prepared in the following final concentrations in PBS, pH 8.3: 1 nM, 10 nM, 100 nM, 1 μM, 10 μM, 100 μM and 1 mM. After addition of 250 μl each of coating solution/well, the plates were incubated at room temperature overnight and then washed three times with PBS, pH 8.3. […]
(§1) The quantification of the adhered cells was carried out indirectly via the activity determination of the cellular enzyme N-acetylhexosaminidase using an appropriate standard curve according to the method of Landegren (1984, J. Immunol. Methods, 67: 379-388).

human platelets = test: Adhesion of human platelets to PMMA bone cement shaped articles coated with cell-selective acrylate peptides; assay type: cell-based; conditions: for cell adhesion, calculated Abs (405 nm), platelets: first part experiment
Text: (§2) The model used for material coating with RGD peptides of different cell selectivity to obtain implants having locally differentiated bioactive coating patterns which should stimulate the adhesion of different cell species was polymerized PMMA bone cement shaped articles. To these were covalently coupled two RGD peptides of different cell selectivity. In this case acrylate peptide 3, type iiia, having a selectivity for alphav beta3 -/alphav beta5 -integrin-bearing osteoblasts, and acrylate peptide 5, type iiia, having a selectivity for […] -positive platelets were bonded to the PMMA shaped articles as described for Example 3.
(§3) a. In the first part experiment, PMMA shaped articles were coated with the acrylate peptides 3 and 5 in concentrations in the coating solution of 100 μM, 10 μM and 1 μM in each case. These RGD peptide-coated materials were then inoculated in parallel with osteoblasts and platelets and their cell adhesion was determined.
(§4) MC3T3 H1 osteoblasts (350,000 cells/cm^2) and human platelets (50 million cells/cm^2) were in each case inoculated in parallel both onto acrylate peptide 3- and acrylate peptide 5-coated PMMA shaped articles and their cell adhesion was determined as described in Example 3.
Human platelets were prepared following the process of Shattil and Brass (J. Biol. Chem. 262:992-1000, 1987).
(§5) b. In the second part experiment, PMMA shaped articles were likewise coated with the acrylate peptides 3 and 5, but only in a concentration in the coating solution of 100 μM in each case. These RGD peptide-coated materials were then inoculated in parallel with osteoblasts, platelets or an osteoblast/platelet mixture and their cell adhesion was determined. MC3T3 H1 osteoblasts (350,000 cells/cm^2), human platelets (50 million cell/cm^2) and a cell mixture (350,000 osteoblasts/cm^2 […] 50 million platelets/cm^2) were in each case inoculated in parallel both onto acrylate peptide 3- and acrylate peptide 5-coated PMMA shaped articles and their cell adhesion was determined as described in Example 3.

[1] = tested on: osteoblasts/platelets mixture; test: Adhesion of an osteoblast/platelet mixture to PMMA bone cement shaped articles coated with cell-selective acrylate peptides; assay type: cell-based, mouse, human; conditions: second part experiment; 100 μM peptide in the coating solution
Description: as §5

MC3T3 H1 osteoblasts [2] = test: Adhesion of MC3T3 H1 osteoblasts to PMMA bone cement shaped articles coated with cell-selective acrylate peptides; assay type: cell-based, mouse; conditions: for cell adhesion, calculated Abs (405 nm), osteoblasts: first part experiment
Text: as §2, §3, §4, §5

MC3T3 H1 osteoblasts [3] = test: Adhesion of MC3T3 H1 osteoblasts to PMMA moulded articles coated with acrylate RGD peptides; assay type: cell-based, mouse; conditions: for maximal adsorption rates: 48,000 cells/cm^2, 1 hour
Description: For the covalent coupling of these peptides to polymerized PMMA (polymethyl methacrylate) surfaces, appropriate shaped articles of differing porosity (diameter: 10 mm; height: 2 mm) were prepared from three different PMMA components.
Bone cement based on PMMA (Merck KGaA, Germany, Licence No. 5181.00.00) corresponding to the product description (40 g of powder+20 ml of liquid).
10 g of PMMA/PHEMA (polyhydroxyethyl methacrylate) granules, particle size 0.5-0.6 mm (Biomet) were mixed with 1.3 ml of an HEMA solution (68.6% HEMA, 29.4% TEGMA [triethylene glycol dimethacrylate], 2% tBPB, [tert-butyl peroxybenzoate]) and adhered by means of this to a porous support material.
10 g of PMMA granules (Plex Y7H, Rohm, Germany), particle fraction 0.7-2 mm were mixed with 1.5 ml of a methyl methacrylate (MMA) solution (68.6% MMA, 29.4% TEGMA, 2% tBPB) and adhered by this means to a porous support material.
For the covalent coupling of the acrylate peptides to the prepolymerized PMMA moulded articles, stock solutions of the acrylate peptides 1, 2, 3 and 4 were prepared in a final concentration of 100 μM in each case in DMSO/0.2% camphorquinone (w/v). Then, by dilution with isopropanol/0.2% camphorquinone (w/v), concentration series having final peptide concentrations of 0.1 nM, 1 nM, 10 nM, 100 nM, 1 μM and 10 μM in each case were prepared. The moulded articles were incubated in daylight and at room temperature for 2 hours and then stored at 4° C. in the dry state. Before use, the samples were washed with PBS, pH 7.4, to remove unbound peptides and stored at 4° C. in PBS, pH 7.4, overnight.
By addition of 250 μl/moulded article each of a 5% strength BSA solution in PBS, pH 7.4, and subsequent incubation for 2 hours at room temperature and washing once with PBS, pH 7.4, non-specific cell-binding sites were blocked.
Subsequently, the adhesion of osteoblasts of the MC3T3 H1 line, obtained from the calvaria of neonatal mice (Heermeier et al., 1995, Cells and Materials 5: 309-321) to the above-described peptide-coated surfaces was investigated.
The MC3T3 H1 osteoblasts were inoculated at an inoculation density of 48,000 cells/cm^2, as described above, in Costar 48-well plates, with PMMA moulded articles coated with RGD peptide and then incubated for 1 hour at 37° C., 95% atmospheric humidity and 5% CO2. Cells non-adhered during the experiment were then washed off twice with PBS, pH 7.4.
as §1

[4] = 1 μM peptide in the coating solution
[5] = 10 μM peptide in the coating solution
[6] = 100 μM peptide in the coating solution
[7] = second part experiment, 100 μM peptide in the coating solution
[8] = bone cement shaped articles, FIG. 8
[9] = different PMMA moulded articles

## N=C(N)NCCC[C@@H]1NC(=O)[C@H](CCCCN)NC(=O)[C@@H](Cc2ccccc2)NC(=O)[C@H](CC(=O)O)NC(=O)CNC1=O [cyclic RGDfK, cyclo-RGDfK (Arg-Gly-Asp-DPhe-Lysine)]
Osteoblast cell cultures
  inhibition of osteoblast binding to thiolpeptide 1-sulpho-SMPB derivative-coated surfaces: completely inhibited

## cyclo (RGDf[acrylic-ahx-tEG-KG]) [acrylate peptide 5]
Human platelets; [4]
  cell adhesion, calculated Abs (405 nm), platelets: about 0.2 Abs
Human platelets; [5]
  cell adhesion, calculated Abs (405 nm), platelets: about 0.5 Abs
Human platelets; [6]
  cell adhesion, calculated Abs (405 nm), platelets: about 4.0 Abs
Human platelets; [7]
  cell adhesion, Abs, platelets alone: about 4.0 Abs
[1]
  cell adhesion, Abs, osteoblasts/platelets inoculated as a mixture: about 6.5 Abs
MC3T3 H1 osteoblasts [2]; [4]
  cell adhesion, calculated Abs (405 nm), osteoblasts: about 0.2 Abs
MC3T3 H1 osteoblasts [2]; [5]
  cell adhesion, calculated Abs (405 nm), osteoblasts: about 1.0 Abs
MC3T3 H1 osteoblasts [2]; [6]
  cell adhesion, calculated Abs (405 nm), osteoblasts: about 1.5 Abs
MC3T3 H1 osteoblasts [2]; [7]
  cell adhesion, Abs, osteoblasts alone: about 1.5 Abs

## cyclo(RGDf[acrylic-ahx-K]) [acrylate peptide 1]
MC3T3 H1 osteoblasts [3]; PMMA carriers, comparison of anchor lengths
  stimulation of cell adhesion (in words): almost inactive
MC3T3 H1 osteoblasts [3]; [8]
  cell adsorption rates increased in comparison with uncoated surfaces: about 1.5 fold
MC3T3 H1 osteoblasts [3]; [9]
  maximal adsorption rates: about 20%

## cyclo(RGDf[acrylic-ahx-ahx-K]) [acrylate peptide 2]
MC3T3 H1 osteoblasts [3]; [8]
  cell adsorption rates increased in comparison with uncoated surfaces: 5-15 fold
MC3T3 H1 osteoblasts [3]; [9]
  maximal adsorption rates: 80-100%
MC3T3 H1 osteoblasts [3]; different PMMA moulded articles, read-out: half-maximal cell bindings, RGD peptide concentration in the coating solution
  EC50: 0.001 to 10 µM
MC3T3 H1 osteoblasts [3]; porous PMMA/PHEMA granule shaped articles, FIG. 9
  cell adsorption rates increased in comparison with uncoated surfaces: 2-5 fold
MC3T3 H1 osteoblasts [3]; porous Plex Y7H granule shaped articles, FIG. 10
  cell adsorption rates increased in comparison with uncoated surfaces: 2-3 fold
